What all share (test): biochemical
What all share (parameters): KINOMEscan scanMAX competition binding, DNA-tagged kinases, qPCR read-out, percent control at 300 nM
(In qPCR the cycle at which signal appears reflects the starting amount.)

In experiment [1] the target is T1, DMPK2 (Homo sapiens, UniProt Q6DT37).
T1 construct: gene CDC42BPG

The target of experiment [2] is TIE1 (Homo sapiens, UniProt P35590).
The target in experiment [3] is CSNK1G3 (Homo sapiens, UniProt Q9Y6M4).
The target in experiment [4] is SBK1 (Homo sapiens, UniProt Q52WX2).
In experiment [5] the target is T2, PFTAIRE2 (Homo sapiens, UniProt Q96Q40).
T2 construct: gene CDK15

Experiment [6] addresses T3, GAK (Homo sapiens, UniProt O14976).
T3 sequence (O14976 1-1311): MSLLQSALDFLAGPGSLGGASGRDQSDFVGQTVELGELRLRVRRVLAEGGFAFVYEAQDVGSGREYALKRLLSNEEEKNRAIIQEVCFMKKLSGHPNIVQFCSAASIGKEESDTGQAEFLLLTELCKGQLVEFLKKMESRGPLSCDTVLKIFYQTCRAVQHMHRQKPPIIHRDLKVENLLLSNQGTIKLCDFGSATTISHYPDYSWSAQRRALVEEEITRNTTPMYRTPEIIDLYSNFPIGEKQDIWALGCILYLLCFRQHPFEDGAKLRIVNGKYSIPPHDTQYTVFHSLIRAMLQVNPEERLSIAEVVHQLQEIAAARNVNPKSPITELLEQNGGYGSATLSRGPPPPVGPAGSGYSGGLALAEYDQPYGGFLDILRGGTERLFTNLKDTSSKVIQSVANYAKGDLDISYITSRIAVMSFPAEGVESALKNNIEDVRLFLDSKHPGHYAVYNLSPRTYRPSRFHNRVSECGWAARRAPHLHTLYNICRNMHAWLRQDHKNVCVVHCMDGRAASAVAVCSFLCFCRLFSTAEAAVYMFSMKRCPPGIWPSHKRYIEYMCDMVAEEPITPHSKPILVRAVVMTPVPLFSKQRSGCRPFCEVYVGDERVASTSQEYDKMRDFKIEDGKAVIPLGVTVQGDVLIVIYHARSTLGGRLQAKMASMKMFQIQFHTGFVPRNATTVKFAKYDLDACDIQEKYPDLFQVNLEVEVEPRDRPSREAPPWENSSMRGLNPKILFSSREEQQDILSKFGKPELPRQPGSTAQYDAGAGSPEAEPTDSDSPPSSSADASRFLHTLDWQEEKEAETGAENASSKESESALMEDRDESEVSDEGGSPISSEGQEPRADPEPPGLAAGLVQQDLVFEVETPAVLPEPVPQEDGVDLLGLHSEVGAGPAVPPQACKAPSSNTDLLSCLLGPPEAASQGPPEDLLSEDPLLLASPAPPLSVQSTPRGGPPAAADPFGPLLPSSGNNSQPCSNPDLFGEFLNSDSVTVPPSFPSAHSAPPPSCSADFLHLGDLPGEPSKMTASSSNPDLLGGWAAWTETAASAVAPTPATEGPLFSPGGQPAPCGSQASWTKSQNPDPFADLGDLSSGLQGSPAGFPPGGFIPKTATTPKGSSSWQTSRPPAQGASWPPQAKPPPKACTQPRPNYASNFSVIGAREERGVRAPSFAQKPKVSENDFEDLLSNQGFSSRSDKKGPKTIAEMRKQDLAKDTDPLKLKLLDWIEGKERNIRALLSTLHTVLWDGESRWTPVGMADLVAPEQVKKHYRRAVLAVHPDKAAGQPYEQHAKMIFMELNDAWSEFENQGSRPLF

Experiment [7] addresses T4, RIOK1 (Homo sapiens, UniProt Q9BRS2).
T4 sequence (Q9BRS2 1-568): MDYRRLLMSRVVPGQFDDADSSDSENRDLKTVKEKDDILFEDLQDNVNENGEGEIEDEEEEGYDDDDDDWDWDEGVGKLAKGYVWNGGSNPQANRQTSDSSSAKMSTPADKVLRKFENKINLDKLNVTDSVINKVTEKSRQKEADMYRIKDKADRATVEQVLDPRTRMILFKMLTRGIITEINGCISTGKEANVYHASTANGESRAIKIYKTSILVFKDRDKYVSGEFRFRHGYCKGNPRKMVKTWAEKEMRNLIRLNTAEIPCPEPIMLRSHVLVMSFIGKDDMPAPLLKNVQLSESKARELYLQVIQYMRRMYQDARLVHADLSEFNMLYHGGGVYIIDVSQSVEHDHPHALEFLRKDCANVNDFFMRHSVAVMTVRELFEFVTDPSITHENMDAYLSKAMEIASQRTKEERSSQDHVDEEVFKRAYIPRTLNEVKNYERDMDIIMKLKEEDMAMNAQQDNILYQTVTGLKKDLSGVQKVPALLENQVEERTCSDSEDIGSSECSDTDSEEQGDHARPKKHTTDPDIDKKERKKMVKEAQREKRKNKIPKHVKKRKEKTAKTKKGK

In experiment [8] the target is DYRK1B (Homo sapiens, UniProt Q9Y463).
Experiment [9] has as its target EGFR(L747-S752del, P753S) (Homo sapiens, UniProt P00533, DEL747-752/P753S).
Where [10] appears, read: read-out: Percent control / Acalabrutinib.
Setting [11] is: read-out: Percent control / Ibrutinib.
Where [12] appears, read: read-out: Percent control / Tirabrutinib.
Where [13] appears, read: read-out: Percent control / Zanubrutinib.

SMILES strings stand for the structures. Read-outs that look alike come from different tables or passages of the source.

T2 sequence (Q96Q40 whole entry): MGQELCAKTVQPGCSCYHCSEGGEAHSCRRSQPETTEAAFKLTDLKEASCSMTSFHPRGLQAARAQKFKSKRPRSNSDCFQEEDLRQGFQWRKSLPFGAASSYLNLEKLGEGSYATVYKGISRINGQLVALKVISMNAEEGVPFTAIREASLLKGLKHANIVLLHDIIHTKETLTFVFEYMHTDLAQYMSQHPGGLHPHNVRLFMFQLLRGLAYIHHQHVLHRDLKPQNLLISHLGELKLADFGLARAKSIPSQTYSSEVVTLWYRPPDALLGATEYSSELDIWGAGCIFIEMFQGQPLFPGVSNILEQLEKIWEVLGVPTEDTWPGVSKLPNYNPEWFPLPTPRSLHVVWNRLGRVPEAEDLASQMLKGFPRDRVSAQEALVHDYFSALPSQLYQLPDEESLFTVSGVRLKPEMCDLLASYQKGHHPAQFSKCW
Sequence of CSNK1G3 (Q9Y6M4 whole entry): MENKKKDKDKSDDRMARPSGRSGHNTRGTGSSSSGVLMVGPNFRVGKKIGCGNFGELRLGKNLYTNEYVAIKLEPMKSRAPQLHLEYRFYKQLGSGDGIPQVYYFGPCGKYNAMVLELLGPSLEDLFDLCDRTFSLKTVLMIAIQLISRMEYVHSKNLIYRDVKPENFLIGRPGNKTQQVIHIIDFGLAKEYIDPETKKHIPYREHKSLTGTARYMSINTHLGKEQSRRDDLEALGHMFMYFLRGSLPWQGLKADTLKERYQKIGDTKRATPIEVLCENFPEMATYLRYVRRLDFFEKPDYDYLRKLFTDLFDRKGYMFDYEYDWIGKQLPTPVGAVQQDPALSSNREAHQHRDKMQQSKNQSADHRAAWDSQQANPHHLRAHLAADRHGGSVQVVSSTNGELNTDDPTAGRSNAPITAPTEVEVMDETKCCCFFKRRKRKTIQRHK
Sequence of DYRK1B (Q9Y463 whole entry): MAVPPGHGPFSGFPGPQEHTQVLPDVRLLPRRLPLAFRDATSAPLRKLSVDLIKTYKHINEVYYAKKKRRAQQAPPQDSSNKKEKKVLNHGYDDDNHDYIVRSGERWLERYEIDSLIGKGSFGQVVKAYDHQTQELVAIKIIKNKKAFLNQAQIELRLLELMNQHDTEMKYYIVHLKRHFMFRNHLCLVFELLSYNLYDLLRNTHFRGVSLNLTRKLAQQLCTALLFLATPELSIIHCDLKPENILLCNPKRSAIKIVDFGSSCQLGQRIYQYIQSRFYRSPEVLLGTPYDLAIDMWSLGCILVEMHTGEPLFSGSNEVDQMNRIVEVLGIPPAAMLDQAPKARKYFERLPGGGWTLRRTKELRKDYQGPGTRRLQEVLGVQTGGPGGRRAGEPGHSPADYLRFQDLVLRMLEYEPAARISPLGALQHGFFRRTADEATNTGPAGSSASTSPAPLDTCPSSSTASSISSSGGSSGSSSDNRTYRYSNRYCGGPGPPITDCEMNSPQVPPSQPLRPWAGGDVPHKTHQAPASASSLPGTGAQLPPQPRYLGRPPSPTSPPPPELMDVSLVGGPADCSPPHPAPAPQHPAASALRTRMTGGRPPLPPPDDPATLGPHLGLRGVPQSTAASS
T1 sequence (Q6DT37 whole entry): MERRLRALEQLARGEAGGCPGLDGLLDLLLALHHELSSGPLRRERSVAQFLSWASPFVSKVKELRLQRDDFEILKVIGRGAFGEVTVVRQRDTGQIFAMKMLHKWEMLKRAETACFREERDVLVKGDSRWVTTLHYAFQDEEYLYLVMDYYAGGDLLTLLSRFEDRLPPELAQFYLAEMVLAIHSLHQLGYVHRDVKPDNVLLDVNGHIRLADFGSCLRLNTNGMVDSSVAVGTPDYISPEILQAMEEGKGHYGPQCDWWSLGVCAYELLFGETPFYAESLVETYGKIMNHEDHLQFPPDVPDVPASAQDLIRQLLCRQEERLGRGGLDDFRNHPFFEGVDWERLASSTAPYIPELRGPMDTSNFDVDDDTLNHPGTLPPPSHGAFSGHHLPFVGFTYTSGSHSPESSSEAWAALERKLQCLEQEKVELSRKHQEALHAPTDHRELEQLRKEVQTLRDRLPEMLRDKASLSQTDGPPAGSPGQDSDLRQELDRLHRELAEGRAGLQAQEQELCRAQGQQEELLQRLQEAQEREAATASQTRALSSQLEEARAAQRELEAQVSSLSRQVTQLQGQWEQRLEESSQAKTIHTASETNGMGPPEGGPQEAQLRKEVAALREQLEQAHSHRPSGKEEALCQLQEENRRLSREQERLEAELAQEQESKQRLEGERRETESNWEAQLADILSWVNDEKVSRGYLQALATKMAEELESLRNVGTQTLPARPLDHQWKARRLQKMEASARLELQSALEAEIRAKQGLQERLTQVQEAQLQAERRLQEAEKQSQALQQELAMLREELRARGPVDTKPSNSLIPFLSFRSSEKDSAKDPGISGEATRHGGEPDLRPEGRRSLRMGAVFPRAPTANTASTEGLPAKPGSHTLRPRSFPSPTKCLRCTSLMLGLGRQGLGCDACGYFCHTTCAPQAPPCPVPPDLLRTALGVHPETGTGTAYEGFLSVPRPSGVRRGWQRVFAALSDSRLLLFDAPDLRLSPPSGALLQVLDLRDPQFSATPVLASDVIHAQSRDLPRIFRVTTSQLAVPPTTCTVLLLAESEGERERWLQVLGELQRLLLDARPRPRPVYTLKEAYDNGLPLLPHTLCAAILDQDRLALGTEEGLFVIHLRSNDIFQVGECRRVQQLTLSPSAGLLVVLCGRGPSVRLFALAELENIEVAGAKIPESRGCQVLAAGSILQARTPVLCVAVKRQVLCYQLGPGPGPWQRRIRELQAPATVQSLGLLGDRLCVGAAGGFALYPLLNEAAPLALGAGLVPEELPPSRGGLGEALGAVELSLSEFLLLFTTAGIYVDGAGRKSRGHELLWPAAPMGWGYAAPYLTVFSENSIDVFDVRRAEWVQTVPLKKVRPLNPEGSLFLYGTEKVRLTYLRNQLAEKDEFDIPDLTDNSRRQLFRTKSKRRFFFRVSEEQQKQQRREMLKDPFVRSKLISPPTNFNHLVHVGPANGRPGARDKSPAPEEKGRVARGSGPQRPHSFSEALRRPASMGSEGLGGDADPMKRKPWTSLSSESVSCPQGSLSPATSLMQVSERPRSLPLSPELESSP
Sequence of TIE1 (P35590 whole entry): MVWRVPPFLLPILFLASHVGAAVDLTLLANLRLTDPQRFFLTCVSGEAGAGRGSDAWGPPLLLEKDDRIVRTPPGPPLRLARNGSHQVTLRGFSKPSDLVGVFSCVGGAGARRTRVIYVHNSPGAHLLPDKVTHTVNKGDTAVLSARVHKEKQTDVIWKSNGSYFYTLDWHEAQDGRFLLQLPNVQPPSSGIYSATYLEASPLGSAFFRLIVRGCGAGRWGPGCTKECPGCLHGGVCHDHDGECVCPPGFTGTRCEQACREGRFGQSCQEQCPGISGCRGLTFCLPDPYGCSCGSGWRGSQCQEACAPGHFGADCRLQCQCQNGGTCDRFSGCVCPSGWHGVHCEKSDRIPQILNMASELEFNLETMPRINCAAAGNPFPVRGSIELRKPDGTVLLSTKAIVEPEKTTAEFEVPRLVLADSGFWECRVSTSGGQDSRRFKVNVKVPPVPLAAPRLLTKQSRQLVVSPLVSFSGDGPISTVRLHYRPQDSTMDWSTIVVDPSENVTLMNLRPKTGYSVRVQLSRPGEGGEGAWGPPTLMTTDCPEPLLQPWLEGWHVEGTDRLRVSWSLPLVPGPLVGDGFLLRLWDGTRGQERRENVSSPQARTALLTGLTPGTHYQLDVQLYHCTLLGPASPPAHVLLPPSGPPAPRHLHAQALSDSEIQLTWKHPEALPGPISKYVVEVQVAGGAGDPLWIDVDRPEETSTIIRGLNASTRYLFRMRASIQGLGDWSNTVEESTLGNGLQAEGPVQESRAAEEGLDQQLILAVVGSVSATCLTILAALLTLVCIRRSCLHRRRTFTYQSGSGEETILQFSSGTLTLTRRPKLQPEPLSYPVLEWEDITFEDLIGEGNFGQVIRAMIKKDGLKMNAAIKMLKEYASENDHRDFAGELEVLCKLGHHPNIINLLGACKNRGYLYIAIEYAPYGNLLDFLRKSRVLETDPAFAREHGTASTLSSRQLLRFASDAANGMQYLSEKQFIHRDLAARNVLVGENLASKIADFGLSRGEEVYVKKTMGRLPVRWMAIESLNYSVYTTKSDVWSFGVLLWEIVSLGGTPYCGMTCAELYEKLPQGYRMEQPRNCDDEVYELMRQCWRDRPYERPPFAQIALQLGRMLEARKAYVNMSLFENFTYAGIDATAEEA
Sequence of SBK1 (Q52WX2 whole entry): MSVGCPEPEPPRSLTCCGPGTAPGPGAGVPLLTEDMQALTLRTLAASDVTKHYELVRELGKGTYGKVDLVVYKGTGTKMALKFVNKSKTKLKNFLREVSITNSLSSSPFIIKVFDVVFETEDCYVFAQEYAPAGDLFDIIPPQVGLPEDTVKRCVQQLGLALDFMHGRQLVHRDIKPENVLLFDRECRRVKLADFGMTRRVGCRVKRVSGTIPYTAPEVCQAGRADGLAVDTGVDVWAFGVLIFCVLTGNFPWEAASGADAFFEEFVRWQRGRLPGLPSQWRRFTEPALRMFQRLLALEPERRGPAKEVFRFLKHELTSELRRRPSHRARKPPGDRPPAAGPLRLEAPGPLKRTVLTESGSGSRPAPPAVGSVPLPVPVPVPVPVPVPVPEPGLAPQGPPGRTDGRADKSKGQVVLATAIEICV

With `CC#CC(=O)N1CCC[C@H]1c1nc(-c2ccc(C(=O)Nc3ccccn3)cc2)c2c(N)nccn12` [Acalabrutinib], the remaining binding at 0.3 µM worked out at 91% in [1] (setting [10]); 86% in experiment [2] (setting [10]); 91% in [3] (setting [10]); 91% in [4] (setting [10]); 82% in experiment [5] (setting [10]); 92% in experiment [6] (setting [10]). The figures for the remaining binding at 0.3 µM in [7] (setting [10]), in experiment [8] (setting [10]) and in experiment [9] (setting [10]) were 72%, 72% and 99%, respectively.

As for `C=CC(=O)N1CCC[C@@H](n2nc(-c3ccc(Oc4ccccc4)cc3)c3c(N)ncnc32)C1` [Ibrutinib], the remaining binding at 0.3 µM in experiment [1] (setting [11]) was found to be 75%; in experiment [2] (setting [11]), 75%; in [4] (setting [11]), 47%; in experiment [5] (setting [11]) it was 89%; in experiment [7] (setting [11]) it was 51%; in experiment [9] (setting [11]) it was 12%.

Consider `CC#CC(=O)N1CC[C@@H](n2c(=O)n(-c3ccc(Oc4ccccc4)cc3)c3c(N)ncnc32)C1` [Tirabrutinib], for which the remaining binding at 0.3 µM came to 87% in experiment [1] (setting [12]); 90% in experiment [2] (setting [12]); 99% in experiment [3] (setting [12]); 53% in experiment [4] (setting [12]); 99% in experiment [5] (setting [12]); 95% in experiment [6] (setting [12]). The results for the remaining binding at 0.3 µM in [7] (setting [12]), in experiment [8] (setting [12]) and in [9] (setting [12]) were 79%, 70% and 88%, respectively.

On to `C=CC(=O)N1CCC([C@@H]2CCNc3c(C(N)=O)c(-c4ccc(Oc5ccccc5)cc4)nn32)CC1` [Zanubrutinib], for which the remaining binding at 0.3 µM turned out to be 98% in experiment [2] (setting [13]); 90% in experiment [3] (setting [13]); 94% in experiment [4] (setting [13]); 87% in experiment [6] (setting [13]); 75% in [7] (setting [13]); 71% in experiment [8] (setting [13]).
